From patent publication US20100292334A1, “N-ACYLHYDRAZONE DERIVATIVES USEFUL AS MODULATORS OF NICOTINIC ACETYLCHOLINE RECEPTORS” (NeuroSearch A/S, priority 2007, published 2010)

Columns and labels:
[1] = target: T1, wild-type nAChR α7 receptors (Homo sapiens, UniProt P36544); assay: Positive modulation of nAChR α7 receptors expressed in Xenopus laevis oocytes, two-electrode voltage clamp; type: cell-based
T1 construct: expressed in transfected cells; host or cells: Xenopus laevis oocytes
Method: In this example the positive modulation of wild-type nAChR α7 receptors by Compound 3 (i.e. 4-Hydroxy-3-methoxy-benzoic acid [3-methyl-4-oxo-4H-naphthalen-(1E)-ylidene]-hydrazide; FIGS. 1A and 1B) was determined using nAChR α7 receptors heterologously expressed in Xenopus laevis oocytes.
The electrical current through the nAChR α7 channel was measured using conventional two-electrode voltage clamp and nAChR α7 currents were activated by applying pulses of agonist-containing solution onto the nAChR α7 expressing oocyte.
In brief, the oocytes were placed in a recording chambers and continuously super-fused with an Oocyte Ringer (OR) solution containing 90 mM NaCl, 2.5 mM KCl, 2.5 mM CaCl2, 1 mM MgCl2 and 5 mM HEPES (pH adjusted to 7.4). The oocytes were clamped at −60 mV and currents were induced by applying 20 s pulses of 100 μM acetylcholine dissolved in OR. The intervals between the acetylcholine applications were 5 minutes, during which the oocytes were washed with OR. The first three applications were control applications to insure a constant response level of 100 μM acetylcholine.
The positive modulation in the presence of Compound 3 was calculated as (test-control)/control*100% and the concentration response curve for this positive modulation was fitted to the sigmoidal logistic equation: I=Imax/(1+(EC50/[compound])n), where Imax represents the maximal modulation of the control response, EC50 is the concentration causing a half maximal response, and n is the slope coefficient.

T1 sequence (P36544 23-502): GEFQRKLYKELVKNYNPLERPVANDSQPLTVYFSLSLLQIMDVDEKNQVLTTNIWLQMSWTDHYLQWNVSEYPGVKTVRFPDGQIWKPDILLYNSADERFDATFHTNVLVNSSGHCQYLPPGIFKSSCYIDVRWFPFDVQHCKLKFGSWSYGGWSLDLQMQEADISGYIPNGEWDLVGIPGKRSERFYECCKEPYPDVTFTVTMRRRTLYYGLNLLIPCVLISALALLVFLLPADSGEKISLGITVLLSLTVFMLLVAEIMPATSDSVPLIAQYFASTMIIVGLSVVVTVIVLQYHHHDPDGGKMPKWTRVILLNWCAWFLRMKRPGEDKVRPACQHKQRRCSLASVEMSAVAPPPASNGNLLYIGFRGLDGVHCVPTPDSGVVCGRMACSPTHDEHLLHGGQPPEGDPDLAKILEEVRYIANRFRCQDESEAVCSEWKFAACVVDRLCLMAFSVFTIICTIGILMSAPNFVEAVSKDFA

Compound | melting point [°C] | effect on the acetylcholine-induced current amplitude ([1]; 0.01-31.6 μM applied 30 s before and during 100 μM acetylcholine) | Imax (maximal modulation of the control response) ([1]; Xenopus laevis oocytes clamped at −60 mV, 100 μM acetylcholine, (test-control)/control*100%, fitted maximum) [%] | EC50 ([1]; Xenopus laevis oocytes clamped at −60 mV, currents induced by 100 μM acetylcholine, compound 0.01-31.6 μM applied 30 s before and during acetylcholine, read-out: EC50 (concentration causing a half maximal response) of positive modulation) [µM]
CC1=C/C(=N\NC(=O)c2ccc(O)cc2)c2ccccc2C1=O [Compound 1, 4-Hydroxy-benzoic acid [3-methyl-4-oxo-4H-naphthalen-(1E)-ylidene]-hydrazide] | 274.3 to 275.7 |  |  | 
COc1ccc(C(=O)N/N=C2\C=C(C)C(=O)c3ccccc32)cc1 [Compound 2, 4-Methoxy-benzoic acid [3-methyl-4-oxo-4H-naphthalen-(1E)-ylidene]-hydrazide] | 252.9 to 253.4 |  |  | 
COc1cc(C(=O)N/N=C2\C=C(C)C(=O)c3ccccc32)ccc1O [Compound 3, 4-Hydroxy-3-methoxy-benzoic acid [3-methyl-4-oxo-4H-naphthalen-(1E)-ylidene]-hydrazide] | 254.8 to 255.6 | robust increase | 98 | 0.49

The next lines start with the values.

melting point [°C] | effect on the acetylcholine-induced current amplitude ([1]; 0.01-31.6 μM applied 30 s before and during 100 μM acetylcholine) | Imax (maximal modulation of the control response) ([1]; Xenopus laevis oocytes clamped at −60 mV, 100 μM acetylcholine, (test-control)/control*100%, fitted maximum) [%] | EC50 ([1]; Xenopus laevis oocytes clamped at −60 mV, currents induced by 100 μM acetylcholine, compound 0.01-31.6 μM applied 30 s before and during acetylcholine, read-out: EC50 (concentration causing a half maximal response) of positive modulation) [µM] | Compound
290.3 to 292.7 |  |  |  | CC1=C/C(=N/NC(=O)c2ccc(C#N)cc2)c2ccccc2C1=O [Compound 6, 4-Cyano-benzoic acid [3-methyl-4-oxo-4H-naphthalen-(1Z)-ylidene]-hydrazide]
251.9 to 252.9 |  |  |  | CC1=C/C(=N\NC(=O)c2ccc3[nH]ccc3c2)c2ccccc2C1=O [Compound 4, 1H-Indole-5-carboxylic acid [3-methyl-4-oxo-4H-naphthalen-(1E)-ylidene]-hydrazide]
280.5 to 280.8 |  |  |  | CC(=O)Nc1ccc(C(=O)N/N=C2\C=C(C)C(=O)c3ccccc32)cc1 [Compound 5, N-{-4-[3-Methyl-4-oxo-4H-naphthalen-(1E)-ylidene-hydrazinocarbonyl]-phenyl}-acetamide]
